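In this assay, cells in 96-well plates receive the compound at five concentrations for 48 hours. Endpoints are linearly interpolated between the surrounding concentrations. Abbreviation: GI50, concentration required for 50% inhibition of growth.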 Activity calls are given as the source filed them. Rule as the data show it: active = GI50 up to about 1.1 µM and inactive = higher.
How the values were obtained:
Assay in all cases: inhibition of tumour cell growth, NCI panel, 48 h
A498 = system: A498
HCC 2998 = system: HCC 2998
HCT-15 = system: HCT-15
HOP-92 = system: HOP-92
IGROV-1 = system: IGROV-1
K562 = system: K562
KM12 = system: KM12
NCI-H460 = system: NCI-H460
NCI-H522 = system: NCI-H522
OVCAR-4 = system: OVCAR-4
RPMI-8226 = system: RPMI-8226
SF-295 = system: SF-295
SF-539 = system: SF-539
SK-MEL-5 = system: SK-MEL-5
SW-620 = system: SW-620
UACC-62 = system: UACC-62
UO-31 = system: UO-31
CAKI-1 = system: CAKI-1

SMILES	GI50 (A498)	GI50 (HCC 2998)	GI50 (HCT-15) [µM]	GI50 (HOP-92)	GI50 (IGROV-1)	GI50 (K562)	GI50 (KM12)	GI50 (NCI-H460)	GI50 (NCI-H522)	GI50 (OVCAR-4)	GI50 (RPMI-8226)	GI50 (SF-295)	GI50 (SF-539)	GI50 (SK-MEL-5)	GI50 (SW-620)	GI50 (UACC-62)	GI50 (UO-31)	GI50 (CAKI-1)
CC1=C(CO)C(=O)OC(C(C)C2CCC3C4CC5OC56C(O)C(N5CC5)=CC(=O)C6(C)C4CCC23C)C1 (centres undefined)	2.11 µM (inactive)	2.93 µM (inactive)	3.46	5.33 µM (inactive)	3.47 µM (inactive)	3.59 µM (inactive)	2.02 µM (inactive)	9.44 µM (inactive)	1.67 µM (inactive)	7.19 µM (inactive)	3.35 µM (inactive)	16.5 µM (inactive)	3.66 µM (inactive)	12.8 µM (inactive)	2.56 µM (inactive)	10.5 µM (inactive)	12.9 µM (inactive)	–
CCOC(=O)C1(C)CCC(C(C(=O)O)C(=O)O)CC1=O (centres undefined)	> 100 µM (inactive)	> 100 µM (inactive)	> 100	> 100 µM (inactive)	> 100 µM (inactive)	–	> 100 µM (inactive)	> 100 µM (inactive)	> 100 µM (inactive)	> 100 µM (inactive)	> 100 µM (inactive)	> 100 µM (inactive)	> 100 µM (inactive)	> 100 µM (inactive)	> 100 µM (inactive)	> 100 µM (inactive)	> 100 µM (inactive)	> 100 µM (inactive)
COc1ccc2c(c1)CC1c3c(ccc(OC)c3O)CC2N1C (centres undefined)	> 100 µM (inactive)	16.8 µM (inactive)	34.4	28.1 µM (inactive)	44.1 µM (inactive)	20.4 µM (inactive)	28.2 µM (inactive)	19.3 µM (inactive)	19.7 µM (inactive)	29.4 µM (inactive)	20.9 µM (inactive)	22.8 µM (inactive)	24.7 µM (inactive)	18.1 µM (inactive)	21.5 µM (inactive)	47.4 µM (inactive)	30.8 µM (inactive)	40 µM (inactive)
O=C(CC1(O)C(=O)Nc2c(Cl)cc(Cl)cc21)c1ccc2ccccc2c1 (centres undefined)	11.3 µM (inactive)	> 10 µM (inactive)	3.62	21.4 µM (inactive)	10.9 µM (inactive)	3.18 µM (inactive)	5.92 µM (inactive)	4.7 µM (inactive)	2.92 µM (inactive)	13.6 µM (inactive)	5.22 µM (inactive)	7.93 µM (inactive)	8.17 µM (inactive)	6.11 µM (inactive)	3.66 µM (inactive)	3.55 µM (inactive)	11.5 µM (inactive)	5.7 µM (inactive)
CCOC(=O)NC(=O)c1c[nH]c(=O)[nH]c1=O	> 100 µM (inactive)	> 100 µM (inactive)	> 100	> 100 µM (inactive)	> 100 µM (inactive)	> 100 µM (inactive)	> 100 µM (inactive)	> 100 µM (inactive)	–	> 100 µM (inactive)	> 100 µM (inactive)	> 100 µM (inactive)	> 100 µM (inactive)	> 100 µM (inactive)	> 100 µM (inactive)	> 100 µM (inactive)	> 100 µM (inactive)	> 100 µM (inactive)
CCOC(=O)C(=O)C(C#N)c1ccc(Cl)cc1 (centres undefined)	> 100 µM (inactive)	–	> 100	> 100 µM (inactive)	> 100 µM (inactive)	> 100 µM (inactive)	–	> 100 µM (inactive)	> 100 µM (inactive)	> 100 µM (inactive)	> 100 µM (inactive)	> 100 µM (inactive)	> 100 µM (inactive)	> 100 µM (inactive)	> 100 µM (inactive)	> 100 µM (inactive)	88.1 µM (inactive)	> 100 µM (inactive)
N#Cc1cccc(/C=N/N/C(N)=N/O)c1	33.3 µM (inactive)	–	68.5	39.4 µM (inactive)	24.2 µM (inactive)	41.2 µM (inactive)	52.7 µM (inactive)	32.1 µM (inactive)	21.6 µM (inactive)	20.9 µM (inactive)	–	> 100 µM (inactive)	> 100 µM (inactive)	–	> 100 µM (inactive)	13 µM (inactive)	49.1 µM (inactive)	17.1 µM (inactive)
CCCCN(CCCC)c1c([N+](=O)[O-])c(=O)nc2ccccn12	22.3 µM (inactive)	–	39.4	61.5 µM (inactive)	> 100 µM (inactive)	37.2 µM (inactive)	31.3 µM (inactive)	24.8 µM (inactive)	17.6 µM (inactive)	–	33.4 µM (inactive)	–	31.4 µM (inactive)	33.5 µM (inactive)	36.2 µM (inactive)	36.7 µM (inactive)	45.6 µM (inactive)	> 10 µM (inactive)
Cc1cccc(NC(=O)c2c(N)[n+]([O-])c3ccccc3[n+]2[O-])c1	16.1 µM (inactive)	–	–	15.2 µM (inactive)	5.11 µM (inactive)	5.68 µM (inactive)	14.9 µM (inactive)	12.9 µM (inactive)	6.01 µM (inactive)	9.98 µM (inactive)	–	10.9 µM (inactive)	5.05 µM (inactive)	5.53 µM (inactive)	8.38 µM (inactive)	–	18.4 µM (inactive)	13.9 µM (inactive)
CC[C@H](C)[C@H]1NC(=O)C(C(C)=O)=C1O	> 100 µM (inactive)	54 µM (inactive)	79.8	> 100 µM (inactive)	> 100 µM (inactive)	> 100 µM (inactive)	96.4 µM (inactive)	80 µM (inactive)	88.5 µM (inactive)	95.9 µM (inactive)	–	> 100 µM (inactive)	> 100 µM (inactive)	98.9 µM (inactive)	21.4 µM (inactive)	97.5 µM (inactive)	> 100 µM (inactive)	> 100 µM (inactive)
COc1ccc(C2Oc3cc(OC)c(OC)cc3C2CCl)cc1OC (centres undefined)	73.5 µM (inactive)	> 100 µM (inactive)	> 100	74.3 µM (inactive)	–	> 100 µM (inactive)	> 100 µM (inactive)	> 100 µM (inactive)	> 100 µM (inactive)	41.4 µM (inactive)	> 100 µM (inactive)	–	> 100 µM (inactive)	34.1 µM (inactive)	> 100 µM (inactive)	25.6 µM (inactive)	> 100 µM (inactive)	> 100 µM (inactive)
Cc1ccc(-c2cc(-c3ccccc3)c(C#N)c(=O)n2C2OC(CO)C(O)C(O)C2O)cc1 (centres undefined)	> 100 µM (inactive)	> 100 µM (inactive)	> 100	> 100 µM (inactive)	> 100 µM (inactive)	86.7 µM (inactive)	> 100 µM (inactive)	> 100 µM (inactive)	> 100 µM (inactive)	> 100 µM (inactive)	> 100 µM (inactive)	> 100 µM (inactive)	> 100 µM (inactive)	58.5 µM (inactive)	> 100 µM (inactive)	> 100 µM (inactive)	> 100 µM (inactive)	–
CC(=O)NC1=C(NCc2ccc(Cl)cc2)C(=O)c2ccccc2C1=O	–	27.5 µM (inactive)	5.57	–	11.3 µM (inactive)	2.46 µM (inactive)	8.17 µM (inactive)	10.8 µM (inactive)	0.986 µM (active)	6.85 µM (inactive)	–	13.3 µM (inactive)	4.41 µM (inactive)	5.46 µM (inactive)	7 µM (inactive)	2.61 µM (inactive)	5.15 µM (inactive)	–
COc1cc2ccc(CC#N)cc2cc1OC	> 100 µM (inactive)	–	–	71.1 µM (inactive)	–	> 100 µM (inactive)	> 100 µM (inactive)	> 100 µM (inactive)	–	93.5 µM (inactive)	–	> 100 µM (inactive)	> 100 µM (inactive)	62.1 µM (inactive)	> 100 µM (inactive)	–	> 100 µM (inactive)	45.9 µM (inactive)
N=C(N)NS(=O)(=O)c1ccc(NCCc2c3ccccc3nc3ccccc23)cc1	–	> 100 µM (inactive)	> 100	> 100 µM (inactive)	> 100 µM (inactive)	51.1 µM (inactive)	> 100 µM (inactive)	> 100 µM (inactive)	> 100 µM (inactive)	1.31 µM (inactive)	7.26 µM (inactive)	> 100 µM (inactive)	> 100 µM (inactive)	–	> 100 µM (inactive)	–	> 100 µM (inactive)	87.1 µM (inactive)
N#Cc1c2nc3ccccc3nc2n2ccc3ccccc3c12	–	> 100 µM (inactive)	> 100	> 100 µM (inactive)	> 100 µM (inactive)	> 100 µM (inactive)	32.4 µM (inactive)	> 100 µM (inactive)	> 100 µM (inactive)	> 100 µM (inactive)	> 100 µM (inactive)	> 100 µM (inactive)	> 100 µM (inactive)	> 100 µM (inactive)	–	–	> 100 µM (inactive)	–
CCOC(=O)CC(=O)ON(C)C(C)=O	> 100 µM (inactive)	> 100 µM (inactive)	> 100	–	> 100 µM (inactive)	> 100 µM (inactive)	> 100 µM (inactive)	> 100 µM (inactive)	> 100 µM (inactive)	> 100 µM (inactive)	> 100 µM (inactive)	> 100 µM (inactive)	> 100 µM (inactive)	> 100 µM (inactive)	> 100 µM (inactive)	> 100 µM (inactive)	> 100 µM (inactive)	> 100 µM (inactive)
CCC12CCCN(Cc3ccccc3)C1c1c(n(C)c3ccccc13)C(CO)C2 (centres undefined)	–	58.1 µM (inactive)	38.3	33.4 µM (inactive)	38.5 µM (inactive)	29.4 µM (inactive)	40.4 µM (inactive)	39.5 µM (inactive)	30.8 µM (inactive)	–	37.2 µM (inactive)	26.9 µM (inactive)	37.6 µM (inactive)	40.2 µM (inactive)	35.6 µM (inactive)	51.3 µM (inactive)	–	92.7 µM (inactive)

Source: ChEMBL document CHEMBL1201862, “PubChem BioAssay data set” (2004)
